Reference: patent US7348300B2, “Acetylenic diol ethylene oxide/propylene oxide adducts and processes for their manufacture” (Air Products and Chemicals, Inc., priority 1999, dated 2008)
Read-outs that look alike come from different tables or passages of the source.

What was measured:
[1] = Dynamic surface tension of aqueous solutions, maximum bubble pressure method
Text: In the following Examples dynamic surface tension data were obtained for aqueous solutions of various compounds using the maximum bubble pressure method at bubble rates from 0.1 bubbles/second (b/s) to 20 b/s. […] In practical terms, high bubble rates correspond to high printing speeds in lithographic printing, high spray or roller velocities in coating applications, and rapid application rates for agricultural products.
This value is a measure of the efficiency of a surfactant.
The critical aggregation concentrations (solubility limit or critical micelle concentration) were determined by intersection of the linear portion of a surface tension/ In concentration curve with the limiting surface tension as is described in many textbooks. […]
Process solutions containing 0.1 weight percent of a surfactant derived from 2,5,8,11-tetramethyl-6-dodecyne-5,8-diol or containing a fluorosurfactant, potassium perfluorooctane carboxylate provided by 3M of […]. were prepared in order to compare the equilibrium surface tension (EST) and dynamic surface tension (DST). The EST for both solutions was measured using the Wilhemy plate method on a […] manufactured by Kruss, Inc. of Charlotte, N.C. The DST of each process solution was measured via the maximum bubble pressure method.

[2] = Ross-Miles foam test based upon ASTM D 1173-53; format: physicochemical; conditions: 0.1 wt % solution
Method: In this test, a 0.1 wt % solution of the surfactant is added from an elevated foam pipette to a foam receiver containing the same solution. The foam height is measured at the completion of the addition (“Initial Foam Height”) and the time required for the foam to dissipate is recorded (“Time to 0 Foam”). This test provides a comparison between the foaming characteristics of various surfactant solutions. In general, in coatings, inks, and agricultural formulations, foam is undesirable because is complicates handling and can lead to coating and print defects, and to inefficient application of agricultural materials.

[3] = Equilibrium surface tension, Wilhemy plate method; format: physicochemical; conditions: 0.1 wt %
Method: Process solutions containing 0.1 weight percent of a surfactant derived from 2,5,8,11-tetramethyl-6-dodecyne-5,8-diol or containing a fluorosurfactant, potassium perfluorooctane carboxylate provided by 3M of St. Louis, Mo. were prepared in order to compare the equilibrium surface tension (EST) and dynamic surface tension (DST). The EST for both solutions was measured using the Wilhemy plate method on a Kruss BP3 bubble pressure tensiometer manufactured by Kruss, Inc. of Charlotte, N.C.

| Molecule | Sol Limit / critical aggregation concentration (CAG) [1] [wt %] | RM Foam initial (Initial Foam Height) [2] [cm] | RM Foam t to 0 (Time to 0 Foam) [2] [s] | Sol Limit / critical aggregation concentration (CAG) ([1]; solubility limit or critical micelle concentration in water) | RM Foam, foam height after 5 minutes [2] [cm] | EST [3] [dyne/cm] |
| --- | --- | --- | --- | --- | --- | --- |
| 3.5 mole ethoxylate of 2,4,7,9-tetramethyl-5-decyne-4,7-diol capped with 2 moles of propylene oxide [Example 3] | 0.21 | 1.0 | 10 | – | – | – |
| 10 mole EO/2 mole PO block derivative of 2,4,7,9-tetramethyl-5-decyne-4,7-diol [Example 5] | – | 2.1 | – | (0.78) wt % | 1.3 | – |
| O=C([O-])C(F)(F)C(F)(F)C(F)(F)C(F)(F)C(F)(F)C(F)(F)C(F)(F)C(F)(F)F.[K+] [Fluorosurfactant, potassium perfluorooctane carboxylate, reference compound] | – | – | – | – | – | 21.2 |
